In PubChem BioAssay (NCI):
“And” between values parts separate entries of the source, which are not always exact repeats. Equal values may be shown once.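 Assay format: 96-well plates, 48-hour exposure. GI50 is the concentration that inhibits growth by half. At the TGI there is no net growth.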 Where a SMILES comes first, the peptide text is derived from it. The star is where a group is joined. Cbz = O=C(OCc1ccccc1)*; Boc = CC(C)(C)OC(=O)*; OSu = O=C1CCC(=O)N1O*; Bn = c1ccc(C*)cc1

How the values were obtained:
Test in all cases: growth of human tumour cells (NCI), 48 h
[1] = tested on: TK-10 renal
[2] = tested on: UO-31 renal
[3] = tested on: SNB-19 CNS
[4] = tested on: HOP-62 NSCLC
[5] = tested on: M14 melanoma
[6] = tested on: CAKI-1 renal
[7] = tested on: SK-OV-3 ovarian
[8] = tested on: SF-539 CNS
[9] = tested on: EKVX NSCLC
[10] = tested on: SW-620 colon
[11] = tested on: UACC-257 melanoma
[12] = tested on: ACHN renal
[13] = tested on: MALME-3M melanoma
[14] = tested on: OVCAR-8 ovarian
[15] = tested on: OVCAR-3 ovarian
[16] = tested on: HS 578T breast
[17] = tested on: MDA-MB-231 breast

Row | Structure (SMILES) | TGI [1] [µM] | TGI [2] [µM] | TGI [3] [µM] | TGI [4] | TGI [5] [µM] | TGI [6] | TGI [7] [µM] | TGI [8] [µM] | TGI [9] [µM] | TGI [10] [µM] | TGI [11] [µM] | TGI [12] [µM] | TGI [13] [µM] | TGI [14] [µM] | TGI [15] [µM] | TGI [16] [µM] | TGI [17] [µM] | GI50 [4] | GI50 [6]
1 | CC(C)=CC(=O)c1c(C(=O)O)nc2ccccc2[n+]1[O-] | > 100 | > 100 | > 100 | > 100 µM | > 100 | > 100 µM | > 100 | > 100 | > 100 | > 100 | > 100 | > 100 |  |  |  |  |  |  | 
2 | COc1ccc2c(c1)CC[C@@H]1C2CC[C@]2(C)C(=C=CP(=O)(O)O)CCC12 (stereo partly specified) | > 100 |  | > 100 | > 100 µM | > 100 | > 100 µM | > 100 | > 100 | > 100 | > 100 | > 100 | > 100 | > 100 | > 100 | > 100 | > 100 |  |  | 
3 | COc1cccc(N=NN2CCCC2)c1 | > 100 | > 100 | > 100 | > 100 µM | > 100 | > 100 µM | > 100 | > 100 | > 100 | > 100 | > 100 | > 100 |  | > 100 | > 100 | > 100 | > 100 |  | 
4 | O=c1c2cc(I)ccc2nc(-c2cccs2)n1O | 79.4 | > 100 | 72 | > 100 µM | > 100 | 98.4 µM |  | > 100 | > 100 | > 100 | > 100 | > 100 |  | > 100 | 42.8 |  |  |  | 
5 | CC(C)=CCCC1(C)C2COC(=O)C21 (stereo unspecified) | > 100 | > 100 | > 100 | > 100 µM and 75.4 µM |  | > 100 µM and 30.7 µM | > 100 |  | > 100 | > 100 | > 100 | > 100 | > 100 |  |  |  | > 100 | > 100 µM and 27.6 µM | > 100 µM and 16 µM
6 | CC(C)(C)OC(=O)NC(Cc1ccc(OCc2ccccc2)cc1)C(=O)NC(CCCCNC(=O)OCc1ccccc1)C(=O)NC(CCCCNC(=O)OCc1ccccc1)C(=O)ON1C(=O)CCC1=O (stereo unspecified) (Boc-Tyr(Bn)-Lys(Cbz)-Lys(Cbz)-OSu; configuration not given here) | > 100 | > 100 | 30.7 | > 100 µM | > 100 | > 100 µM | > 100 |  | > 100 |  | > 100 | > 100 | > 100 | 94.8 |  | 49 |  |  | 
7 | NC(N)=NCCCC(NC(=O)c1c2ccccc2nc2ccccc12)C(=O)O (stereo unspecified) | > 100 | > 100 | > 100 | > 100 µM | > 100 | > 100 µM | > 100 | > 100 | > 100 | > 100 | > 100 | > 100 |  | > 100 | > 100 |  | > 100 |  | 
8 | CCOC(=O)c1c(-c2ccccc2)c(C)cn1C | > 10 | > 10 | > 10 |  | > 10 |  | > 10 | > 10 | > 10 |  | > 10 | > 10 |  | > 10 | > 10 | > 10 | 0.772 |  | 
